From paper PMC12372887, “Mechanism and cellular actions of the potent AMPK inhibitor BAY-3827” (Science Advances, 2025)

Columns and labels:
Test in all cases: Kinase panel (140 human kinases)
Format in all cases: biochemical
HIPK2 = HIPK2 (Homo sapiens, UniProt Q9H2X6)
In short: (§1)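 Duplicate radiometric filter-binding measurements with [γ-^33P]ATP gave percent residual activity, mean and SD. Tested concentrations: 0.1 μM and, for BAY-3827, 1 μM. ATP set per kinase to 5, 20 or 50 μM, not above Km.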

MARK4 = MARK4 (Homo sapiens, UniProt Q96L34)
In short: as §1

PRAK = PRAK (Homo sapiens, UniProt Q8IW41)
In short: as §1

JAK3 = JAK3 (Homo sapiens, UniProt P52333)
In short: as §1

DYRK1A = DYRK1A (Homo sapiens, UniProt Q13627)
In short: as §1

STK33 = STK33 (Homo sapiens, UniProt Q9BYT3)
In short: as §1

MKK2 = MKK2 (Homo sapiens, UniProt P36507)
In short: as §1

MST4 = MST4 (Homo sapiens, UniProt Q9P289)
In short: as §1

ERK1 = ERK1 (Homo sapiens, UniProt P27361)
In short: as §1

BTK = BTK (Homo sapiens, UniProt Q06187)
In short: as §1

PKCa = PKCa (Homo sapiens, UniProt P17252)
In short: as §1

PINK = PINK (Tribolium castaneum, UniProt D6WMX4)
In short: as §1

MNK1 = MNK1 (Homo sapiens, UniProt Q9BUB5)
In short: as §1

MARK3 = MARK3 (Homo sapiens, UniProt P27448)
In short: as §1

CAMK1 = CAMK1 (Homo sapiens, UniProt Q14012)
In short: as §1

S6K1 = S6K1 (Homo sapiens, UniProt P23443)
In short: as §1

MKK1 = MKK1 (Homo sapiens, UniProt Q02750)
In short: as §1

MST2 = MST2 (Homo sapiens, UniProt Q13188)
In short: as §1

ABL = ABL (Homo sapiens, UniProt P00519)
In short: as §1

IKKe = IKKe (Homo sapiens, UniProt Q14164)
In short: as §1

JNK3 = JNK3 (Homo sapiens, UniProt P53779)
In short: as §1

PHK = details: 0.1 μM
In short: as §1

NEK6 = NEK6 (Homo sapiens, UniProt Q9HC98)
In short: as §1

MLK3 = MLK3 (Homo sapiens, UniProt Q16584)
In short: as §1

EIF2AK3 = EIF2AK3 (Homo sapiens, UniProt Q9NZJ5)
In short: as §1

IKKb = target: T1, IKKb (Homo sapiens, UniProt O14920)
T1 sequence (O14920 1-756): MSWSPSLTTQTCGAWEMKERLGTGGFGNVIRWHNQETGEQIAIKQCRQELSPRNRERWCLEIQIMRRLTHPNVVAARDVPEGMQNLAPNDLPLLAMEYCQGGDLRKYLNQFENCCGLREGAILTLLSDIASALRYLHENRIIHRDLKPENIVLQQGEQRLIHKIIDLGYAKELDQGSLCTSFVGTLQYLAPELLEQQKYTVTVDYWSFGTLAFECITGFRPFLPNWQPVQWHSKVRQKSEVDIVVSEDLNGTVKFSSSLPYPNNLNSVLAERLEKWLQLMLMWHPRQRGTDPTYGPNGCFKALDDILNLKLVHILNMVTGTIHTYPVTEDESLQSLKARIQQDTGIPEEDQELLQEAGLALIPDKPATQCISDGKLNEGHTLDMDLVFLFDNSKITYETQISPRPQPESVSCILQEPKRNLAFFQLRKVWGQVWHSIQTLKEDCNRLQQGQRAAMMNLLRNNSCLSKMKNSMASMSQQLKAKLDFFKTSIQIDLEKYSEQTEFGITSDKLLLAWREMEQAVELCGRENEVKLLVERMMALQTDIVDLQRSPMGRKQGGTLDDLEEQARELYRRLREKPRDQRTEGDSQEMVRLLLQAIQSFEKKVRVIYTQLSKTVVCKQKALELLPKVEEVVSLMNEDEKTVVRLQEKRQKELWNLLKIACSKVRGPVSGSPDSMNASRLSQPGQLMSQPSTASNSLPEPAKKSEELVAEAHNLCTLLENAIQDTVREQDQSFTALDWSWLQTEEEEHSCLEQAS
In short: as §1

CDK2-Cyclin A = CDK2-Cyclin A (Homo sapiens, UniProt P24941)
In short: as §1

EPH-A4 = EPH-A4 (Homo sapiens, UniProt P54764)
In short: as §1

EPH-B2 = EPH-B2 (Homo sapiens, UniProt P29323)
In short: as §1

TTBK1 = TTBK1 (Homo sapiens, UniProt Q5TCY1)
In short: as §1

PKBa = PKBa (Homo sapiens, UniProt P31749)
In short: as §1

Sequence of TTBK1 (Q5TCY1 whole entry): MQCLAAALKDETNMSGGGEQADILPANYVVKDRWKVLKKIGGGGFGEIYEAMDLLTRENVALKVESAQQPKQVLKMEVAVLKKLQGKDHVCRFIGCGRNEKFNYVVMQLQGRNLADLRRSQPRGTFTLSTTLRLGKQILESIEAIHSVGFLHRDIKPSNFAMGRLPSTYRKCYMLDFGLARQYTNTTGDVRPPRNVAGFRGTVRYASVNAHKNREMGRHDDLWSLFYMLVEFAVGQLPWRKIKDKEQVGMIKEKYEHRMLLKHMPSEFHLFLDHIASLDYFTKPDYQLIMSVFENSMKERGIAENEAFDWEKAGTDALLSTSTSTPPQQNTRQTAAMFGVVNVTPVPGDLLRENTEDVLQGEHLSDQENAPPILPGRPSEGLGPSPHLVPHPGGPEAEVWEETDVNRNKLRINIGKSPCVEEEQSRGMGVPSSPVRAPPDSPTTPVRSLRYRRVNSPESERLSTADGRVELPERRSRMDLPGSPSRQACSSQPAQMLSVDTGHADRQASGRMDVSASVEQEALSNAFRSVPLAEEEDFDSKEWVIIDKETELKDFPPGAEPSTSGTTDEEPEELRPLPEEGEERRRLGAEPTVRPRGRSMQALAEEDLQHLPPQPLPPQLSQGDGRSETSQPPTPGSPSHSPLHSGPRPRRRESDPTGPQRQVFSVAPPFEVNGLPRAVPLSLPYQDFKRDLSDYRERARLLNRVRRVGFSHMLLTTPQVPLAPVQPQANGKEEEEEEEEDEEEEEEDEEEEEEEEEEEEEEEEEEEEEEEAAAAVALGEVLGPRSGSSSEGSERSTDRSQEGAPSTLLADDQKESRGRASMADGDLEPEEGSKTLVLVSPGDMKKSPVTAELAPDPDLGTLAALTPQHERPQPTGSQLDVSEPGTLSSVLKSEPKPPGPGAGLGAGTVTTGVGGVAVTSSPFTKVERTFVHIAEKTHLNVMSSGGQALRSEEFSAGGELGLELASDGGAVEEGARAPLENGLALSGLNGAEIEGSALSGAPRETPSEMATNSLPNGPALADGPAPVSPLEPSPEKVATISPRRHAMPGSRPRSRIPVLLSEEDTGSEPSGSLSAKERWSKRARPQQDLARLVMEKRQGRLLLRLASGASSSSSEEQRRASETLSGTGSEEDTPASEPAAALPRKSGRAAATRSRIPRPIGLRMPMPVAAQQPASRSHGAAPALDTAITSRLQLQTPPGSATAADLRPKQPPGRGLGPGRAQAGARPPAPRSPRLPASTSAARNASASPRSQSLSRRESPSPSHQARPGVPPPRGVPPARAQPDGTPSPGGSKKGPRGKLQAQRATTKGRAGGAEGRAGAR
Sequence of ABL (P00519 whole entry): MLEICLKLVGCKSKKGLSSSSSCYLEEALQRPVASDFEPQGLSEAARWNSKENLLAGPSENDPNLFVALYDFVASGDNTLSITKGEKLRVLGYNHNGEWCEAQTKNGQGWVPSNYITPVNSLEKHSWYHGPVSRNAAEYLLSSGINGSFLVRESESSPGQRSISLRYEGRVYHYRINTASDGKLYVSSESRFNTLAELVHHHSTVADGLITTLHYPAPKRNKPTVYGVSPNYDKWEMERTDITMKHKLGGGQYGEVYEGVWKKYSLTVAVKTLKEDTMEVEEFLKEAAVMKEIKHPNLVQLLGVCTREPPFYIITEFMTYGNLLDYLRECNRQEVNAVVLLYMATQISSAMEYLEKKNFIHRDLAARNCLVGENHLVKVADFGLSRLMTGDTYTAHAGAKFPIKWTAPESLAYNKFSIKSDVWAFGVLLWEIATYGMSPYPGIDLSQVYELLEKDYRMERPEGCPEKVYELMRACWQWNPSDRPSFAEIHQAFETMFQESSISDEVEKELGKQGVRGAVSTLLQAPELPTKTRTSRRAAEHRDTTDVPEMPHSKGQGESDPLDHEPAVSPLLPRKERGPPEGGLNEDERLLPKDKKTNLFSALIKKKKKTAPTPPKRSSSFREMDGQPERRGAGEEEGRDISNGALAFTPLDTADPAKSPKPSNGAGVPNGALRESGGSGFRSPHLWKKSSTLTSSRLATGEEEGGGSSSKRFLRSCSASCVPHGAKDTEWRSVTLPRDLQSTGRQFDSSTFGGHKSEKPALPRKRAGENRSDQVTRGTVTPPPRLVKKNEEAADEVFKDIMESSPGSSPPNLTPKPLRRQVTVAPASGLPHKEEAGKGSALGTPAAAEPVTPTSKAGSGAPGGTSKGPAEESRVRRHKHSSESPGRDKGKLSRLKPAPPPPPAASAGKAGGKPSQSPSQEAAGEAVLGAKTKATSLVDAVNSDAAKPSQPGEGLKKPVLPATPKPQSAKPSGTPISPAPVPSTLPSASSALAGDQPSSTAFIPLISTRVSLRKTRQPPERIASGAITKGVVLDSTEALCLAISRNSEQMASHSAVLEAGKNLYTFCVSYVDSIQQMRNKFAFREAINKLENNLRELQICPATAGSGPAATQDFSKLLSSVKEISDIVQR
Sequence of EPH-A4 (P54764 20-986): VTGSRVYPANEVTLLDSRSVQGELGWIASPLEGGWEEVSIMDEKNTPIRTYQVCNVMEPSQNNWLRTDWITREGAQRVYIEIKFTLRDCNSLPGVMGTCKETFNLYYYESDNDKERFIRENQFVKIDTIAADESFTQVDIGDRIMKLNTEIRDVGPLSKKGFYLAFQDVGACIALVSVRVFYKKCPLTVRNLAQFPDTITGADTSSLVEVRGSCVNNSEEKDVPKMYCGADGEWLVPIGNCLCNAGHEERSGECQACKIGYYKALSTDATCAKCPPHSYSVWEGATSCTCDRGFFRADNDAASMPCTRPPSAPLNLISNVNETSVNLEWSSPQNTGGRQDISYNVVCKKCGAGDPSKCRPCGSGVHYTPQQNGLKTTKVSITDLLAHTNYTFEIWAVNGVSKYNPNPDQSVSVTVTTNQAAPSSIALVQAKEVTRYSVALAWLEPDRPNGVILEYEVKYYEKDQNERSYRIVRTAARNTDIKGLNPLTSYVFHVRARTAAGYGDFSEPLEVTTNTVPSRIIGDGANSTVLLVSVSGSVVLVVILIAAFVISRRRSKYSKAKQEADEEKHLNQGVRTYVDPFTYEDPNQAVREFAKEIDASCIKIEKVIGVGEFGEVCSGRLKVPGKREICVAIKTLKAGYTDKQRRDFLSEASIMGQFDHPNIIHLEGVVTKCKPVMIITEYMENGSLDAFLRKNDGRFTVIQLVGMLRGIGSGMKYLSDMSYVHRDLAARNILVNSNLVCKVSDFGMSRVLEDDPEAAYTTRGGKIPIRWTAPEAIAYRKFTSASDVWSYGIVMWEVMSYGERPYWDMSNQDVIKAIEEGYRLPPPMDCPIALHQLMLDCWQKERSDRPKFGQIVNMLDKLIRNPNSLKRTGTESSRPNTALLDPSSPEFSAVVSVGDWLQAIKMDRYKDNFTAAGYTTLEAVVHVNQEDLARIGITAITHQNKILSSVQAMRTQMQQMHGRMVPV
Sequence of MARK3 (P27448 whole entry): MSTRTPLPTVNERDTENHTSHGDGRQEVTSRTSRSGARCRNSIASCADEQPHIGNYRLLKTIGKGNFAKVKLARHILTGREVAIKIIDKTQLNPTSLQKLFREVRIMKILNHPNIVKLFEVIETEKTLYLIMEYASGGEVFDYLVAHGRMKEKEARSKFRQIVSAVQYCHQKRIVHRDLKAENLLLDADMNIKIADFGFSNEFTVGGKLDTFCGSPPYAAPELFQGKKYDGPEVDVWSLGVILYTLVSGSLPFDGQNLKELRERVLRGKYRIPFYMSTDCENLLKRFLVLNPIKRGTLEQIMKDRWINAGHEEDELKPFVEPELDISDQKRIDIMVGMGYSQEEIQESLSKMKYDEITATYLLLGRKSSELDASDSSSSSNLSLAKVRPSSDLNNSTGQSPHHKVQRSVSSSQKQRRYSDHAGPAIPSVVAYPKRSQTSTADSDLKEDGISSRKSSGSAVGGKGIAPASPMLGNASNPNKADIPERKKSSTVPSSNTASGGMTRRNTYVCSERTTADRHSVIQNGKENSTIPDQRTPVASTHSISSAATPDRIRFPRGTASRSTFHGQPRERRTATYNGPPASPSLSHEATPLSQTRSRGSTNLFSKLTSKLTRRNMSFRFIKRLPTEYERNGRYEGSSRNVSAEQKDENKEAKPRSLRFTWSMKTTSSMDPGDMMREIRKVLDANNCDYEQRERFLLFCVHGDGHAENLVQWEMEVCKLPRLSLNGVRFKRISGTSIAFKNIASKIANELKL
Sequence of MNK1 (Q9BUB5 whole entry): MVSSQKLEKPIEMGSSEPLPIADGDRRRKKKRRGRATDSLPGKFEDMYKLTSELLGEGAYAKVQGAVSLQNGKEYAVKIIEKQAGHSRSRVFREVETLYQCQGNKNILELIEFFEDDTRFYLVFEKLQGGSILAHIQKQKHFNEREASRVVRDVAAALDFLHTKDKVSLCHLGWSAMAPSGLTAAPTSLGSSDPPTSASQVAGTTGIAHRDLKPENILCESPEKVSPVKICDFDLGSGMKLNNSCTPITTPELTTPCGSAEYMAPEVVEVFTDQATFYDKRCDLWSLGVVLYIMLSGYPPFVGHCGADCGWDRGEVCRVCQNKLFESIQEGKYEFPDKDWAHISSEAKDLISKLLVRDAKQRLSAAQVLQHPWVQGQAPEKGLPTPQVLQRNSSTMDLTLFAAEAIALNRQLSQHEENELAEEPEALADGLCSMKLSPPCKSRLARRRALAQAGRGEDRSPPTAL
Sequence of MKK1 (Q02750 whole entry): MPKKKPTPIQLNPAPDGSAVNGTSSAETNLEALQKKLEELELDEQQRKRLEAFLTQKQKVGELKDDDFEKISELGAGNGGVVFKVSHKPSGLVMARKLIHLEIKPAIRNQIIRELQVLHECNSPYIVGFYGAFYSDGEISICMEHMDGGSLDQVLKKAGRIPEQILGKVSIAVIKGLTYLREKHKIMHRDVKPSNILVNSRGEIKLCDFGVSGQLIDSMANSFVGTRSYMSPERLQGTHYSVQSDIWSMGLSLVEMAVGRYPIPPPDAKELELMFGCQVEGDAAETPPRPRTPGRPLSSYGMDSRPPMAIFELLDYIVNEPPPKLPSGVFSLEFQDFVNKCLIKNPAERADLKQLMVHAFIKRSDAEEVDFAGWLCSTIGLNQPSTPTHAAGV

| SMILES | remaining activity at 0.1 µM (HIPK2) | remaining activity at 0.1 µM (MARK4) | remaining activity at 0.1 µM (PRAK) | remaining activity at 0.1 µM (JAK3) | remaining activity at 0.1 µM (DYRK1A) | remaining activity at 0.1 µM (STK33) | remaining activity at 0.1 µM (MKK2) | remaining activity at 0.1 µM (MST4) | remaining activity at 0.1 µM (ERK1) | remaining activity at 0.1 µM (BTK) | remaining activity at 0.1 µM (PKCa) | remaining activity at 0.1 µM (PINK) | remaining activity at 0.1 µM (MNK1) | remaining activity at 0.1 µM (MARK3) | remaining activity at 0.1 µM (CAMK1) | remaining activity at 0.1 µM (S6K1) | remaining activity at 0.1 µM (MKK1) | remaining activity at 0.1 µM (MST2) | remaining activity at 0.1 µM (ABL) | remaining activity at 0.1 µM (IKKe) | also measured |
| --- | --- | --- | --- | --- | --- | --- | --- | --- | --- | --- | --- | --- | --- | --- | --- | --- | --- | --- | --- | --- | --- |
| CCc1ccccc1C(=O)Nc1n[nH]c2c(C)c(F)c(C3C(C#N)=C(C)N(C)C(C)=C3C#N)cc12 [BAY-3827, N-[5-(3,5-dicyano-1,2,6-trimethyl-4H-pyridin-4-yl)-6-fluoro-7-methyl-1H-indazol-3-yl]-2-ethylbenzamide] | 121% | 98% | 101% | 90% | 96% | 94% | 97% | 64% | 105% | 85% | 90% | 90% | 126% | 98% | 80% | 87% | 100% | 85% | 107% | 85% | remaining activity at 1 µM (ABL; 1 μM, ABL1, cross-referenced with screen data of ref 37, read-out: activity remaining after treatment): ≥ 99%; remaining activity at 0.1 µM (JNK3): 88%; inhibition of kinase (PHK): 80 to 85%; remaining activity at 0.1 µM (NEK6): 102%; remaining activity at 0.1 µM (MLK3): 85%; remaining activity at 0.1 µM (EIF2AK3): 98%; remaining activity at 0.1 µM (IKKb): 105%; remaining activity at 1 µM (IKKb; 1 μM, IKKβ, cross-referenced with screen data of ref 37, read-out: activity remaining after treatment): ≥ 99%; remaining activity at 0.1 µM (CDK2-Cyclin A): 99%; remaining activity at 1 µM (CDK2-Cyclin A; 1 μM, CDK2, cross-referenced with screen data of ref 37, read-out: activity remaining after treatment): ≥ 99%; remaining activity at 0.1 µM (EPH-A4): 94%; remaining activity at 0.1 µM (EPH-B2): 98%; remaining activity at 0.1 µM (TTBK1): 101%; remaining activity at 1 µM (TTBK1; 1 μM, cross-referenced with screen data of ref 37, read-out: activity remaining after treatment): ≥ 99%; remaining activity at 0.1 µM (PKBa): 95% |
| CC1=C(C#N)C(c2ccc3c(c2)c(NC(=O)c2ccccc2C)nn3C)C(C#N)=C(C)N1 [BAY-974, N-[5-(3,5-dicyano-2,6-dimethyl-1,4-dihydropyridin-4-yl)-1-methylindazol-3-yl]-2-methylbenzamide] | 108% | 96% | 107% | 106% | 101% | 82% | 95% | 98% | 103% | 94% | 110% | 95% | 100% | 80% | 78% | 97% | 100% | 94% | 59% | 101% | remaining activity at 0.1 µM (JNK3): 104%; Kinase activity remaining (%) (PHK): 120%; remaining activity at 0.1 µM (NEK6): 85%; remaining activity at 0.1 µM (MLK3): 90%; remaining activity at 0.1 µM (EIF2AK3): 113%; remaining activity at 0.1 µM (IKKb): 89%; remaining activity at 0.1 µM (CDK2-Cyclin A): 96%; remaining activity at 0.1 µM (EPH-A4): 81%; remaining activity at 0.1 µM (EPH-B2): 82%; remaining activity at 0.1 µM (TTBK1): 104%; remaining activity at 0.1 µM (PKBa): 95% |
